Patent US6936585B2, “Corticotropin releasing factor 2 receptor agonists” (priority 2002, dated 2005)
Peptide text beside a SMILES is read from it.

Key:
CRF2R = target: T1, CRF2R (Homo sapiens, UniProt Q13324); test: CRF2R agonist activation (EC50 / Emax), called comparative CRF binding; type: cell-based; settings: for EC50: read-out: CRF2R EC50; for Emax: read-out: CRF2R Emax
T1 sequence (Q13324 1-411): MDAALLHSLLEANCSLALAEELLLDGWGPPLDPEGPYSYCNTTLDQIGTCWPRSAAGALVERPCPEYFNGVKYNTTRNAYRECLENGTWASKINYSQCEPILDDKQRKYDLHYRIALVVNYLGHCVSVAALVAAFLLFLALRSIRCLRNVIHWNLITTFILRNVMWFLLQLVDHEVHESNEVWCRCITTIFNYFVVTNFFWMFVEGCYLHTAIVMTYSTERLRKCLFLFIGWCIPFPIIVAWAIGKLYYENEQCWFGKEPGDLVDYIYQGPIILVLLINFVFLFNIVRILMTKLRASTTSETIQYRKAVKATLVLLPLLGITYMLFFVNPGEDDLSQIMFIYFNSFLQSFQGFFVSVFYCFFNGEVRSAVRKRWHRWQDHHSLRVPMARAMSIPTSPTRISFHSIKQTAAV
Procedure, shortened: (§1)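 Receptor-expressing cells are contacted with test peptide or the vehicle it is dissolved in. Lysates are then assayed for cAMP, or expression of a CRE-coupled reporter is quantitated. Engineered cells carrying receptor-G-protein fusions may replace full-length receptors.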

CRF1R = target: T2, CRF1R (Homo sapiens, UniProt P34998); test: CRF1R agonist activation (EC50 / Emax), called comparative CRF binding; type: cell-based; settings: for EC50: read-out: CRF1R EC50; for Emax: read-out: CRF1R Emax
T2 sequence (P34998 24-415): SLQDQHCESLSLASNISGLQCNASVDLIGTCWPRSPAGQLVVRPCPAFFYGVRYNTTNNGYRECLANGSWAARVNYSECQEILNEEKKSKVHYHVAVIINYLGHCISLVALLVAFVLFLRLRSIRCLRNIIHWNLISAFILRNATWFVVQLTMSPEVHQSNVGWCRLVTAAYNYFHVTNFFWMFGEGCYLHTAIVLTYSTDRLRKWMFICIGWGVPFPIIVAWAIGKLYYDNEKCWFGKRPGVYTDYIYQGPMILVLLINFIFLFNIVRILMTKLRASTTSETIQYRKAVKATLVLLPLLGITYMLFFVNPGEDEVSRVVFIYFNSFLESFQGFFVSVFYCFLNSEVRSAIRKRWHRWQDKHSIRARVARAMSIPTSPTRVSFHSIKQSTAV
Procedure, shortened: as §1

## CC[C@H](C)[C@H](N)C(=O)N[C@H](C(=O)N[C@@H](CC(C)C)C(=O)N[C@@H](CO)C(=O)N[C@@H](CC(C)C)C(=O)N[C@@H](CC(=O)O)C(=O)N[C@H](C(=O)N1CCC[C@H]1C(=O)N[C@H](C(=O)NCC(=O)N[C@@H](CC(C)C)C(=O)N[C@@H](CC(C)C)C(=O)N[C@@H](CCC(N)=O)C(=O)N[C@H](C(=O)N[C@@H](CC(C)C)C(=O)N[C@@H](CC(C)C)C(=O)N[C@@H](CCC(=O)O)C(=O)N[C@@H](CCC(N)=O)C(=O)N[C@H](C(=O)N[C@@H](CCCNC(=N)N)C(=O)N[C@@H](C)C(=O)N[C@@H](CCCNC(=N)N)C(=O)N[C@@H](C)C(=O)N[C@@H](C)C(=O)N[C@@H](CCCNC(=N)N)C(=O)N[C@@H](CCC(=O)O)C(=O)N[C@@H](CCC(N)=O)C(=O)N[C@@H](C)C(=O)N[C@H](C(=O)N[C@H](C(=O)N[C@@H](CC(N)=O)C(=O)N[C@@H](C)C(=O)N[C@@H](CCCNC(=N)N)C(=O)N[C@H](C(=O)N[C@@H](CC(C)C)C(=O)N[C@@H](C)C(=O)N[C@@H](CCCNC(=N)N)C(=O)N[C@H](C(N)=O)C(C)C)[C@@H](C)CC)[C@@H](C)O)[C@@H](C)O)[C@@H](C)O)[C@@H](C)CC)[C@@H](C)CC)C(C)C)C(C)C [compound 128] (H-IVLSLDVPIGLLQILLEQTRARAAREQATTNARILARV-NH2; N-terminus assumed)
CRF2R
  EC50: 2.85 nM
  Emax: 98%
CRF1R
  EC50: > 100 nM
  Emax: 8%

## CC[C@H](C)[C@H](N)C(=O)N[C@H](C(=O)N[C@@H](CC(C)C)C(=O)N[C@@H](CO)C(=O)N[C@@H](CC(C)C)C(=O)N[C@@H](CC(=O)O)C(=O)N[C@H](C(=O)N1CCC[C@H]1C(=O)N[C@H](C(=O)NCC(=O)N[C@@H](CC(C)C)C(=O)N[C@@H](CC(C)C)C(=O)N[C@@H](CCC(N)=O)C(=O)N[C@H](C(=O)N[C@@H](CC(C)C)C(=O)N[C@@H](CC(C)C)C(=O)N[C@@H](CCC(=O)O)C(=O)N[C@@H](CCC(N)=O)C(=O)N[C@@H](C)C(=O)N[C@@H](CCCNC(=N)N)C(=O)N[C@@H](C)C(=O)N[C@@H](CC(=O)O)C(=O)N[C@@H](C)C(=O)N[C@@H](C)C(=O)N[C@@H](CCCNC(=N)N)C(=O)N[C@@H](CCC(=O)O)C(=O)N[C@@H](CCC(N)=O)C(=O)N[C@@H](C)C(=O)N[C@H](C(=O)N[C@H](C(=O)N[C@@H](CC(N)=O)C(=O)N[C@@H](C)C(=O)N[C@@H](CCCNC(=N)N)C(=O)N[C@H](C(=O)N[C@@H](CC(C)C)C(=O)N[C@@H](C)C(=O)N[C@@H](CCCNC(=N)N)C(=O)N[C@H](C(N)=O)C(C)C)[C@@H](C)CC)[C@@H](C)O)[C@@H](C)O)[C@@H](C)CC)[C@@H](C)CC)C(C)C)C(C)C [compound 130] (H-IVLSLDVPIGLLQILLEQARADAAREQATTNARILARV-NH2; N-terminus assumed)
CRF2R
  EC50: 8.57 nM
  Emax: 92%
CRF1R
  EC50: > 100 nM
  Emax: 9%

## CC[C@H](C)[C@H](N)C(=O)N[C@H](C(=O)N[C@@H](CC(C)C)C(=O)N[C@@H](CO)C(=O)N[C@@H](CC(C)C)C(=O)N[C@@H](CC(=O)O)C(=O)N[C@H](C(=O)N1CCC[C@H]1C(=O)N[C@H](C(=O)NCC(=O)N[C@@H](CC(C)C)C(=O)N[C@@H](CC(C)C)C(=O)N[C@@H](CCC(N)=O)C(=O)N[C@H](C(=O)N[C@@H](CC(C)C)C(=O)N[C@@H](CC(C)C)C(=O)N[C@@H](CCC(=O)O)C(=O)N[C@@H](CCC(N)=O)C(=O)N[C@@H](C)C(=O)N[C@@H](CCCCN)C(=O)N[C@@H](C)C(=O)N[C@@H](CC(=O)O)C(=O)N[C@@H](C)C(=O)N[C@@H](C)C(=O)N[C@@H](CCCNC(=N)N)C(=O)N[C@@H](CCC(=O)O)C(=O)N[C@@H](CCC(N)=O)C(=O)N[C@@H](C)C(=O)N[C@H](C(=O)N[C@H](C(=O)N[C@@H](CC(N)=O)C(=O)N[C@@H](C)C(=O)N[C@@H](CCCNC(=N)N)C(=O)N[C@H](C(=O)N[C@@H](CC(C)C)C(=O)N[C@@H](C)C(=O)N[C@@H](CCCNC(=N)N)C(=O)N[C@H](C(N)=O)C(C)C)[C@@H](C)CC)[C@@H](C)O)[C@@H](C)O)[C@@H](C)CC)[C@@H](C)CC)C(C)C)C(C)C [compound 131] (H-IVLSLDVPIGLLQILLEQAKADAAREQATTNARILARV-NH2; N-terminus assumed)
CRF2R
  EC50: 5.25 nM
  Emax: 91%
CRF1R
  EC50: > 100 nM
  Emax: 8%

## CC[C@H](C)[C@H](N)C(=O)N[C@H](C(=O)N[C@@H](CC(C)C)C(=O)N[C@@H](CO)C(=O)N[C@@H](CC(C)C)C(=O)N[C@@H](CC(=O)O)C(=O)N[C@H](C(=O)N1CCC[C@H]1C(=O)N[C@H](C(=O)NCC(=O)N[C@@H](CC(C)C)C(=O)N[C@@H](CC(C)C)C(=O)N[C@@H](CCC(N)=O)C(=O)N[C@H](C(=O)N[C@@H](CC(C)C)C(=O)N[C@@H](CC(C)C)C(=O)N[C@@H](CCC(=O)O)C(=O)N[C@@H](CCC(N)=O)C(=O)N[C@@H](CCC(=O)O)C(=O)N[C@@H](CCCCN)C(=O)N[C@@H](CCC(=O)O)C(=O)N[C@@H](CCCCN)C(=O)N[C@@H](CCCCN)C(=O)N[C@@H](CCCNC(=N)N)C(=O)N[C@@H](CCCCN)C(=O)N[C@@H](CCC(=O)O)C(=O)N[C@H](C(=O)N[C@@H](CC(N)=O)C(=O)N[C@@H](C)C(=O)N[C@@H](CCCNC(=N)N)C(=O)N[C@H](C(=O)N[C@@H](CC(C)C)C(=O)N[C@@H](C)C(=O)N[C@@H](CCCNC(=N)N)C(=O)N[C@H](C(N)=O)C(C)C)[C@@H](C)CC)[C@@H](C)O)[C@@H](C)CC)[C@@H](C)CC)C(C)C)C(C)C [compound 132] (H-IVLSLDVPIGLLQILLEQEKEKKRKETNARILARV-NH2; N-terminus assumed)
CRF2R
  EC50: 7.53 nM
  Emax: 88%
CRF1R
  EC50: > 100 nM
  Emax: 8%

## CC[C@H](C)[C@H](N)C(=O)N[C@H](C(=O)N[C@@H](CC(C)C)C(=O)N[C@@H](CO)C(=O)N[C@@H](CC(C)C)C(=O)N[C@@H](CC(=O)O)C(=O)N[C@H](C(=O)N1CCC[C@H]1C(=O)N[C@H](C(=O)NCC(=O)N[C@@H](CC(C)C)C(=O)N[C@@H](CC(C)C)C(=O)N[C@@H](CCC(N)=O)C(=O)N[C@H](C(=O)N[C@@H](CC(C)C)C(=O)N[C@@H](CC(C)C)C(=O)N[C@@H](CCC(=O)O)C(=O)N[C@@H](CCC(N)=O)C(=O)N[C@@H](CCCNC(=N)N)C(=O)N[C@@H](CCCNC(=N)N)C(=O)N[C@@H](C)C(=O)N[C@@H](C)C(=O)N[C@@H](CCCNC(=N)N)C(=O)N[C@@H](CCC(=O)O)C(=O)N[C@@H](CCC(N)=O)C(=O)N[C@@H](C)C(=O)N[C@H](C(=O)N[C@H](C(=O)N[C@@H](CC(N)=O)C(=O)N[C@@H](C)C(=O)N[C@@H](CCCNC(=N)N)C(=O)N[C@H](C(=O)N[C@@H](CC(C)C)C(=O)N[C@@H](C)C(=O)N[C@@H](CCCNC(=N)N)C(=O)N[C@H](C(N)=O)C(C)C)[C@@H](C)CC)[C@@H](C)O)[C@@H](C)O)[C@@H](C)CC)[C@@H](C)CC)C(C)C)C(C)C [compound 133] (H-IVLSLDVPIGLLQILLEQRRAAREQATTNARILARV-NH2; N-terminus assumed)
CRF2R
  EC50: 12.2 nM
  Emax: 88%
CRF1R
  EC50: > 100 nM
  Emax: 4%
